Laboratory results published in patent US9284333B2, “Fused pyrroledicarboxamides and their use as pharmaceuticals” (SANOFI, priority 2012, dated 2016).

Biological target: Human TASK-1 channels (Homo sapiens (Human), UniProt O14649)
Assay: Determination of the activity on the TASK-1 channel in Xenopus oocytes (two-microelectrode voltage clamp)
Format: cell-based
Details: compound concentration 5 μM
Procedure, shortened: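 Xenopus oocytes were injected with human TASK-1 cRNA and recorded two days later by two-microelectrode voltage clamp, holding at −90 mV with 500 ms steps to 40 mV. Superfusion used ND96, pH 7.4, at room temperature, with rising compound concentrations; percentage inhibition of control current was fitted to a dose-response curve for IC50.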

Sequence of Human TASK-1 channels (O14649 whole entry): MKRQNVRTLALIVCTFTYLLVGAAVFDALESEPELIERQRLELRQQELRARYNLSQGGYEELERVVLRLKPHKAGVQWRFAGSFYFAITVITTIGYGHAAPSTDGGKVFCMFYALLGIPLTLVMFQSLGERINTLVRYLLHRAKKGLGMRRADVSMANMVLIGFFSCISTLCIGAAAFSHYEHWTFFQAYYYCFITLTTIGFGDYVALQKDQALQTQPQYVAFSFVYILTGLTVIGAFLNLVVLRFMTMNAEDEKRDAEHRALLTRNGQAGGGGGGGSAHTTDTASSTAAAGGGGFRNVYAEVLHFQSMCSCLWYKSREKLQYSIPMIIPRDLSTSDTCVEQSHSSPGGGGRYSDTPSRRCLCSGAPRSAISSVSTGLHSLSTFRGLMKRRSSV

| inhibition at 5 µM [%] | SMILES |
| --- | --- |
| 36 | CC[C@@H](NC(=O)c1cc(C(=O)NCc2cccnn2)n2c1COCC2)c1ccccc1 [16jf, 3,4-Dihydro-1H-pyrrolo[2,1-c][1,4]oxazine-6,8-dicarboxylic acid 8-[((R)-1-phenyl-propyl)-amide] 6-[(pyridazin-3-ylmethyl)-amide]] |
| 77 | CC(C)[C@@H](NC(=O)c1cc(C(=O)N2CCC[C@@H]2C)c2n1CCOC2)c1ccc(C#N)nc1 [16nm, 8-((S)-2-Methyl-pyrrolidine-1-carbonyl)-3,4-dihydro-1H-pyrrolo[2,1-c][1,4]oxazine-6-carboxylic acid [(R)-1-(6-cyano-pyridin-3-yl)-2-methyl-propyl]-amide] |
| 84 | C[C@H]1CCCN1C(=O)c1cc(C(=O)NCc2c(Cl)cccc2Cl)c2n1CCOC2 [16ag, 6-((S)-2-Methyl-pyrrolidine-1-carbonyl)-3,4-dihydro-1H-pyrrolo[2,1-c][1,4]oxazine-8-carboxylic acid 2,6-dichloro-benzylamide] |

Same assay, conditions: human TASK-1 expressed in Xenopus oocytes, room temperature; read-out: IC50 value for TASK-1 inhibition

| IC50 [nM] | SMILES |
| --- | --- |
| 97 | CC[C@@H](NC(=O)c1cc(C(=O)NCCc2ccc(F)cc2)n2c1CCCC2)c1ccccc1 [16mx, 5,6,7,8-Tetrahydro-indolizine-1,3-dicarboxylic acid 3-{[2-(4-fluoro-phenyl)-ethyl]-amide} 1-[((R)-1-phenyl-propyl)-amide]] |
| 210 | CC[C@@H](NC(=O)c1cc(C(=O)N2CCCC2)n2c1COCC2)c1ccccc1Cl [16cy, 6-(Pyrrolidine-1-carbonyl)-3,4-dihydro-1H-pyrrolo[2,1-c][1,4]oxazine-8-carboxylic acid [(R)-1-(2-chloro-phenyl)-propyl]-amide] |
| 940 | CC[C@@H](NC(=O)c1cc(C(=O)NC2CCCc3nccnc32)n2c1COCC2)c1ccccc1 (stereo partly drawn) [16io, 3,4-Dihydro-1H-pyrrolo[2,1-c][1,4]oxazine-6,8-dicarboxylic acid 8-[((R)-1-phenyl-propyl)-amide] 6-[(5,6,7,8-tetrahydro-quinoxalin-5-yl)-amide]] |
| 130 | CCOC(=O)C[C@H]1CCCN1C(=O)c1cc(C(=O)N[C@H](CC)c2ccccc2)c2n1CCOC2 [16fi, {(R)-1-[8-((R)-1-Phenyl-propylcarbamoyl)-3,4-dihydro-1H-pyrrolo[2,1-c][1,4]oxazine-6-carbonyl]-pyrrolidin-2-yl}-acetic acid ethyl ester] |
| 5100 | CC[C@@H](NC(=O)c1cc(C(=O)N2CCCC2c2ncccn2)n2c1COCC2)c1ccccc1 (stereo partly drawn) [16fz, 6-(2-Pyrimidin-2-yl-pyrrolidine-1-carbonyl)-3,4-dihydro-1H-pyrrolo[2,1-c][1,4]oxazine-8-carboxylic acid ((R)-1-phenyl-propyl)-amide] |
| 250 | CC[C@@H](NC(=O)c1cc(C(=O)NCc2cccc(C#N)c2)n2c1COCC2)c1ccccc1 [16gs, 3,4-Dihydro-1H-pyrrolo[2,1-c][1,4]oxazine-6,8-dicarboxylic acid 6-(3-cyano-benzylamide) 8-[((R)-1-phenyl-propyl)-amide]] |
| 57 | CC[C@H](NC(=O)c1cc(C(=O)N[C@H](CC)c2ccccc2)c2n1CCOC2)c1cnccn1 [16hx, 3,4-Dihydro-1H-pyrrolo[2,1-c][1,4]oxazine-6,8-dicarboxylic acid 8-[((R)-1-phenyl-propyl)-amide] 6-[((S)-1-pyrazin-2-yl-propyl)-amide]] |
| 490 | CC[C@@H](NC(=O)c1cc(C(=O)N2CCC[C@@H]2C)n2c1COCC2)c1ccc(F)c(C#N)c1 [16gq, 6-((S)-2-Methyl-pyrrolidine-1-carbonyl)-3,4-dihydro-1H-pyrrolo[2,1-c][1,4]oxazine-8-carboxylic acid [(R)-1-(3-cyano-4-fluoro-phenyl)-propyl]-amide] |
| 200 | CC[C@@H](NC(=O)c1cc(C(=O)N[C@H](CC)c2ccc(OC)nc2)n2c1COCC2)c1ccccc1 [16j, 3,4-Dihydro-1H-pyrrolo[2,1-c][1,4]oxazine-6,8-dicarboxylic acid 6-{[(R)-1-(6-methoxy-pyridin-3-yl)-propyl]-amide} 8-[((R)-1-phenyl-propyl)-amide]] |
| 780 | CC[C@@H](NC(=O)c1cc(C(=O)N(C)Cc2ccccn2)n2c1COCC2)c1ccccc1 [16gw, 3,4-Dihydro-1H-pyrrolo[2,1-c][1,4]oxazine-6,8--dicarboxylic acid 6-(methyl-pyridin-2-ylmethyl-amide) 8-[((R)-1-phenyl-propyl)-amide]] |
| 640 | CC[C@@H](NC(=O)c1cc(C(=O)NCc2cncc(F)c2)n2c1COCC2)c1ccccc1 [16gu, 3,4-Dihydro-1H-pyrrolo[2,1-c][1,4]oxazine-6,8-dicarboxylic acid 6-[(5-fluoro-pyridin-3-ylmethyl)-amide] 8-[((R)-1-phenyl-propyl)-amide]] |
| 4700 | CC[C@@H](NC(=O)c1c(C)c(C(=O)N2CCC[C@@H]2C)n2c1COCC2)c1ccc(C(F)(F)F)nc1 [16rx, 7-Methyl-6-((S)-2-methyl-pyrrolidine-1-carbonyl)-3,4-dihydro-1H-pyrrolo[2,1-c][1,4]oxazine-8-carboxylic acid [(R)-1-(6-trifluoromethyl-pyridin-3-yl)-propyl]-amide] |
| 42 | CC[C@@H](NC(=O)c1cc(C(=O)N[C@H](C)c2ccc(F)cc2)n2c1COCC2)c1ccccc1 [16gl, 3,4-Dihydro-1H-pyrrolo[2,1-c][1,4]oxazine-6,8-dicarboxylic acid 6-{[(R)-1-(4-fluoro-phenyl)-ethyl]-amide} 8-[((R)-1-phenyl-propyl)-amide]] |
| 140 | CC[C@@H](NC(=O)c1cc(C(=O)N2CCC[C@@H]2C)n2c1COCC2)c1c(F)cc(C#N)cc1F [16ba, 6-((S)-2-Methyl-pyrrolidine-1-carbonyl)-3,4-dihydro-1H-pyrrolo[2,1-c][1,4]oxazine-8-carboxylic acid [(R)-1-(4-cyano-2,6-difluoro-phenyl)-propyl]-amide] |
| 120 | CC[C@@H](NC(=O)c1cc(C(=O)N2CCC[C@@H]2c2ccccc2)n2c1CCCC2)c1ccccc1 [16mm, 3-((R)-2-Phenyl-pyrrolidine-1-carbonyl)-5,6,7,8-tetrahydro-indolizine-1-carboxylic acid ((R)-1-phenyl-propyl)-amide] |
| 490 | CC[C@@H](NC(=O)c1cc(C(=O)N(C)CC2CC2)n2c1COCC2)c1ccccc1 [16he, 3,4-Dihydro-1H-pyrrolo[2,1-c][1,4]oxazine-6,8-dicarboxylic acid 6-(cyclopropylmethyl-methyl-amide) 8-[((R)-1-phenyl-propyl)-amide]] |
| 140 | CC[C@@H](NC(=O)c1cc(C(=O)N2CCC[C@@H]2C(=O)OC(C)C)n2c1COCC2)c1ccccc1 [16n] |
| 920 | CC(C)[C@@H](NC(=O)c1cc(C(=O)N2CCC[C@@H]2C)n2c1COCC2)c1ccc(C#N)nc1 [16am, 6-((S)-2-Methyl-pyrrolidine-1-carbonyl)-3,4-dihydro-1H-pyrrolo[2,1-c][1,4]oxazine-8-carboxylic acid [(R)-1-(6-cyano-pyridin-3-yl)-2-methyl-propyl]-amide] |
| 170 | CC[C@@H](NC(=O)c1cc(C(=O)NC(C)c2ncccn2)n2c1COCC2)c1ccc(F)cc1Cl (stereo partly drawn) [16np, 3,4-Dihydro-1H-pyrrolo[2,1-c][1,4]oxazine-6,8-dicarboxylic acid 8-{[(R)-1-(2-chloro-4-fluoro-phenyl)-propyl]-amide} 6-[(1-pyrimidin-2-yl-ethyl)-amide]] |
